Like-named read-outs stand apart in the source and are kept apart here.
Experiments:
[1] = cytotoxicity in Drosophila DL1 cells; type: cell-based; conditions: Drosophila, DL1 cells (embryonic macrophage-derived), DL1 cells
Description: (§1) We screened the DDPs on the Drosophila assay system for cytotoxicity, inhibitory activity of innate immune signalling and insecticidal activity. The cytotoxicity of the DDPs was evaluated using two cell lines, embryonic macrophage-derived DL1 cells[58]–[60] and larval blood cell-derived l(2)mbn cells, and their IC50 values are listed in Supplementary Table 23.

DL1 cells = assay: cytotoxicity in Drosophila DL1 cells; type: cell-based; conditions: DL1 cells; for IC50: Drosophila melanogaster, cytotoxicity
Description: as §1

MAGI cells = assay: cytotoxicity in the anti-HIV assay (CC50); type: cell-based; conditions: single determinations
[2] = cytotoxicity in Drosophila l(2)mbn cells; type: cell-based; conditions: Drosophila, l(2)mbn cells (larval blood cell-derived)
Description: as §1

l(2)mbn cells = assay: cytotoxicity in Drosophila l(2)mbn cells; type: cell-based; conditions: for Luminescence Raw1: replicate 1; for Luminescence Raw2: replicate 2; for IC50: Drosophila melanogaster, cytotoxicity
Description: as §1

MCF-7 cells = assay: cell cytotoxic effects against MCF-7 cells (72 h), A490; type: cell-based, human; conditions: MCF-7, 72 h
[3] = tested on: human immunodeficiency virus-1 (HIV-1); assay: anti-HIV MAGI assay; type: cell-based; conditions: Human immunodeficiency virus 1, MAGI, anti-HIV; average of numeric determinations; read-out: Avg. EC50
Excerpt: We examined the inhibitory activities of DDPs against various species of bacteria (both gram-negative and gram-positive bacteria), fungi and viruses. […] In contrast, preliminary screening of the DDPs for anti-viral agents with hepatitis B virus (HBV), measles virus (MV), Epstein-Barr virus (EBV), herpes simplex virus (HSV) and human immunodeficiency virus-1 (HIV-1) indicated their selective inhibition of HIV.

[4] = replicate 1, relative to DMSO 1%, read-out: % viability, viability 1
[5] = replicate 2, relative to DMSO 1%, read-out: % viability, viability 2
[6] = average of two replicates, read-out: IC50 Average
[7] = replicate 1, read-out: IC50 (1)
[8] = replicate 2, read-out: IC50 (2)

C=C1CC[C@H]2[C@]3(C)C[C@H](C=C(C)C)O[C@H]3CC[C@]2(C)[C@@H]1Cc1c(O)c(C)c(C)oc1=O [Compound 6, subglutinol B] showed a viability at 0.04 µM [1, 4] of 118%, a viability at 0.04 µM [1, 5] of 124% and a viability at 0.2 µM [1, 4] of 23.9%. The viability at 0.2 µM [1, 5] was 55.3%, the viability at 1 µM [1, 4] was 7.67% and the viability at 1 µM [1, 5] was 8.28%. It also gave a viability at 4 µM [1, 4] of 7.86%, a viability at 4 µM [1, 5] of 7.05% and a viability at 10 µM [1, 4] of 7.18%. It also gave a viability at 10 µM [1, 5] of 7.39%, a viability at 20 µM [1, 4] of 7.25% and a viability at 20 µM [1, 5] of 6.62%. For the same compound, the “Luminescence Raw1” value (DL1 cells; 0.04 µM, replicate 1) was 2426216, the “Luminescence Raw2” value (DL1 cells; 0.04 µM, replicate 2) was 2551013 and the “Luminescence Raw1” value (DL1 cells; 0.2 µM, replicate 1) was 492518. The “Luminescence Raw2” value (DL1 cells; 0.2 µM, replicate 2) was 1138346, the “Luminescence Raw1” value (DL1 cells; 1 µM, replicate 1) was 157908 and the “Luminescence Raw2” value (DL1 cells; 1 µM, replicate 2) was 170527. For the same compound, the “Luminescence Raw1” value (DL1 cells; 4 µM, replicate 1) was 161874, the “Luminescence Raw2” value (DL1 cells; 4 µM, replicate 2) was 145288 and the “Luminescence Raw1” value (DL1 cells; 10 µM, replicate 1) was 147812. For the same compound, the “Luminescence Raw2” value (DL1 cells; 10 µM, replicate 2) was 152139, the “Luminescence Raw1” value (DL1 cells; 20 µM, replicate 1) was 149254 and the “Luminescence Raw2” value (DL1 cells; 20 µM, replicate 2) was 136274. For the same compound, the IC50 (DL1 cells; [6]) was 234 nM, the IC50 (DL1 cells; average±SEM, read-out: IC50) was 230 ± 70 nM and the IC50 (DL1 cells; [7]) was 166 nM. The IC50 (DL1 cells; [8]) was 303 nM, the Cytotoxicity (MAGI cells) was over 10 µM and the viability at 0.04 µM [2, 4] was 126%. The viability at 0.04 µM [2, 5] was 138%, the viability at 0.2 µM [2, 4] was 128% and the viability at 0.2 µM [2, 5] was 117%. It also gave a viability at 1 µM [2, 4] of 16.5%, a viability at 1 µM [2, 5] of 20.7% and a viability at 4 µM [2, 4] of 8.58%. It also gave a viability at 4 µM [2, 5] of 8.06%, a viability at 10 µM [2, 4] of 8.78% and a viability at 10 µM [2, 5] of 7.37%. For the same compound, the viability at 20 µM [2, 4] was 8.3%, the viability at 20 µM [2, 5] was 7.29% and the “Luminescence Raw1” value (l(2)mbn cells; 0.04 µM) was 3229071. For the same compound, the “Luminescence Raw2” value (l(2)mbn cells; 0.04 µM) was 3538217, the “Luminescence Raw1” value (l(2)mbn cells; 0.2 µM) was 3288590 and the “Luminescence Raw2” value (l(2)mbn cells; 0.2 µM) was 2991720. The “Luminescence Raw1” value (l(2)mbn cells; 1 µM) was 424303, the “Luminescence Raw2” value (l(2)mbn cells; 1 µM) was 530313 and the “Luminescence Raw1” value (l(2)mbn cells; 4 µM) was 220220. For the same compound, the “Luminescence Raw2” value (l(2)mbn cells; 4 µM) was 206879, the “Luminescence Raw1” value (l(2)mbn cells; 10 µM) was 225268 and the “Luminescence Raw2” value (l(2)mbn cells; 10 µM) was 189211. The “Luminescence Raw1” value (l(2)mbn cells; 20 µM) was 213009, the “Luminescence Raw2” value (l(2)mbn cells; 20 µM) was 187048 and the IC50 (l(2)mbn cells; [6]) was 850 nM. The IC50 (l(2)mbn cells; average±SEM, read-out: IC50) was 850 ± 10 nM, the IC50 (l(2)mbn cells; [7]) was 860 nM and the IC50 (l(2)mbn cells; [8]) was 838 nM. The viability at 0.1 µM (MCF-7 cells; Homo sapiens, MCF7, 72 h, 0.1 µM (DMSO 0.002%), read-out: A490 (control =1) ave) was 55.9%, the viability at 1 µM (MCF-7 cells; Homo sapiens, MCF7, 72 h, 1 µM (DMSO 0.02%), read-out: A490 (control =1) ave) was 109% and the viability at 10 µM (MCF-7 cells; Homo sapiens, MCF7, 72 h, 10 µM (DMSO 0.2%), read-out: A490 (control =1) ave) was 22.4%. The A490 ave (MCF-7 cells; 0.1 µM (DMSO 0.002%), control 1.064) was 0.595, the A490 ave (MCF-7 cells; 1 µM (DMSO 0.02%), control 1.104) was 1.207 and the A490 ave (MCF-7 cells; 10 µM (DMSO 0.2%), control 1.049) was 0.235. The EC50 [3] was 757 nM.

From publication PMC7156458, “Synthetic biology based construction of biological activity-related library of fungal decalin-containing diterpenoid pyrones” (Nature Communications, 2020)
